The numbers were not newly measured in patent US11878005B2, “Formulations of deferasirox and methods of making the same” (AustinPx, LLC, priority 2015, dated 2024), which cites them from elsewhere.

Test in data set [1]: not given
The source holds these as a separate data set.

For the molecule `O=C(O)c1ccc(-n2nc(-c3ccccc3O)nc2-c2ccccc2O)cc1` [DFX, Deferasirox], where the note is “iron overload patients, administered with a high fat meal”, the “food effect on exposure” value is “two-fold higher exposure”. Moreover, the “total DFX dose recovered in the feces as unchanged drug” value (steady state (7-day dosing)) is 84%. In addition, the reported water solubility in data set [1] (25° C.) was 400 µg/mL. Moreover, in data set [1] (acidic media), the pH dependent solubility result was “insoluble in acidic media”.
